# In ChEMBL document CHEMBL4680139, “Antiproliferative activity of diarylnaphthylpyrrolidine derivative via dual target inhibition” (Eur J Med Chem, 2020):
# What was measured:
# [1] = Toxicity in Swiss albino mouse assessed as triglyceride level in serum at 300 mg/kg, po administered as single dose (reference value: 78.34 +/-2.99 mg/dl); assay type: organism-based; conditions: in vivo
# MCF7 [2] = assay: Induction of apoptosis in human MCF-7 cells assessed as proportion of late apoptotic cells at 2.17 uM measured after 24 hrs by Annexin V- FITC/propidium iodide staining based flow cytometry (reference value: 0.1%); assay type: functional
# [3] = Toxicity in Swiss albino mouse assessed as ALP level in serum at 5 mg/kg, po administered as single dose (reference value: 195.8 +/-12.06 U/L); assay type: organism-based; conditions: in vivo
# [4] = Toxicity in Swiss albino mouse assessed as triglyceride level in serum at 50 mg/kg, po administered as single dose (reference value: 78.34 +/-2.99 mg/dl); assay type: organism-based; conditions: in vivo
# MCF7 [5] = assay: Induction of apoptosis in human MCF-7 cells at 2.17 uM by propidium iodide staining based flow cytometry (reference value: 2.1%); assay type: functional
# [6] = Toxicity in Swiss albino mouse assessed as SGOT level in serum at 5 mg/kg, po administered as single dose (reference value: 22.12 +/-1.91 U/L); assay type: organism-based; conditions: in vivo
# [7] = Toxicity in Swiss albino mouse assessed as albumin level in serum at 5 mg/kg, po administered as single dose (reference value: 0.56 +/-0.02 g/dl); assay type: organism-based; conditions: in vivo
# MDA-MB-231 [8] = assay: Induction of cell cycle arrest in human MDA-MB-231 cells assessed as accumulation at G0/G1 phase at 2.6 uM by propidium iodide staining based flow cytometry (reference value: 77.7 +/- 0.28%); assay type: functional
# MCF7 [9] = assay: Antiproliferative activity against human MCF-7 cells assessed as proportion of live cells at 50 ug/ml measured after 3 weeks by crystal violet staining based soft agar colony formation assay (reference value: 100%); assay type: functional; conditions: dose 50 µg/ml
# MDA-MB-231 [10] = assay: Induction of apoptosis in human MDA-MB-231 cells assessed as proportion of late apoptotic cells at 2.6 uM measured after 24 hrs by Annexin V-FITC/propidium iodide staining based flow cytometry (reference value: 0.5%); assay type: functional
# MDA-MB-231 [11] = assay: Induction of apoptosis in human MDA-MB-231 cells assessed as proportion of viable cells at 10.42 uM measured after 24 hrs by Annexin V-FITC/propidium iodide staining based flow cytometry (reference value: 99%); assay type: functional
# MCF7 [12] = assay: Induction of apoptosis in human MCF-7 cells assessed as proportion of viable cells at 2.17 uM measured after 24 hrs by Annexin V- FITC/propidium iodide staining based flow cytometry (reference value: 94.6%); assay type: functional
# [13] = Toxicity in Swiss albino mouse assessed as total bilirubin level in serum at 50 mg/kg, po administered as single dose (reference value: 0.62 +/-0.05 mg/dl); assay type: organism-based; conditions: in vivo
# [14] = Toxicity in Swiss albino mouse assessed as haemoglobin level in blood at 50 mg/kg, po administered as single dose (reference value: 12.05 +/-0.88 gm/dl); assay type: organism-based; conditions: in vivo
# MCF7 [15] = assay: Induction of cell cycle arrest in human MCF-7 cells assessed as accumulation at G0/G1 phase at 2.17 uM by propidium iodide staining based flow cytometry (reference value: 74.5%); assay type: functional
# MDA-MB-231 [16] = assay: Induction of apoptosis in human MDA-MB-231 cells at 2.6 uM by propidium iodide staining based flow cytometry (reference value: 2.6 +/- 0.28%); assay type: functional
# A549 = assay: Antiproliferative activity against human A549 cells assessed as inhibition of cell growth measured after 48 hrs by SRB assay; assay type: functional, cell-based; conditions: A549, 48 h
# MCF7 [17] = assay: Induction of apoptosis in human MCF-7 cells assessed as proportion of early apoptotic cells at 4.33 uM measured after 24 hrs by Annexin V- FITC/propidium iodide staining based flow cytometry (reference value: 0%); assay type: functional
# MCF7 [18] = assay: Induction of apoptosis in human MCF-7 cells assessed as proportion of viable cells at 4.33 uM measured after 24 hrs by Annexin V- FITC/propidium iodide staining based flow cytometry (reference value: 94.6%); assay type: functional
# MCF7 [19] = assay: Induction of cell cycle arrest in human MCF-7 cells assessed as accumulation at G0/G1 phase at 8.66 uM by propidium iodide staining based flow cytometry (reference value: 74.5%); assay type: functional
# [20] = biological target: DNA topoisomerase 2-alpha (Homo sapiens) (UniProt P11388); assay: Inhibition of DNA-topoisomerase 2 in human MCF7 cells using kinetoplast DNA as substrate at 17.32 uM measured by ELISA; assay type: cell-based
# Chain of DNA topoisomerase 2-alpha (Homo sapiens) (P11388 whole entry): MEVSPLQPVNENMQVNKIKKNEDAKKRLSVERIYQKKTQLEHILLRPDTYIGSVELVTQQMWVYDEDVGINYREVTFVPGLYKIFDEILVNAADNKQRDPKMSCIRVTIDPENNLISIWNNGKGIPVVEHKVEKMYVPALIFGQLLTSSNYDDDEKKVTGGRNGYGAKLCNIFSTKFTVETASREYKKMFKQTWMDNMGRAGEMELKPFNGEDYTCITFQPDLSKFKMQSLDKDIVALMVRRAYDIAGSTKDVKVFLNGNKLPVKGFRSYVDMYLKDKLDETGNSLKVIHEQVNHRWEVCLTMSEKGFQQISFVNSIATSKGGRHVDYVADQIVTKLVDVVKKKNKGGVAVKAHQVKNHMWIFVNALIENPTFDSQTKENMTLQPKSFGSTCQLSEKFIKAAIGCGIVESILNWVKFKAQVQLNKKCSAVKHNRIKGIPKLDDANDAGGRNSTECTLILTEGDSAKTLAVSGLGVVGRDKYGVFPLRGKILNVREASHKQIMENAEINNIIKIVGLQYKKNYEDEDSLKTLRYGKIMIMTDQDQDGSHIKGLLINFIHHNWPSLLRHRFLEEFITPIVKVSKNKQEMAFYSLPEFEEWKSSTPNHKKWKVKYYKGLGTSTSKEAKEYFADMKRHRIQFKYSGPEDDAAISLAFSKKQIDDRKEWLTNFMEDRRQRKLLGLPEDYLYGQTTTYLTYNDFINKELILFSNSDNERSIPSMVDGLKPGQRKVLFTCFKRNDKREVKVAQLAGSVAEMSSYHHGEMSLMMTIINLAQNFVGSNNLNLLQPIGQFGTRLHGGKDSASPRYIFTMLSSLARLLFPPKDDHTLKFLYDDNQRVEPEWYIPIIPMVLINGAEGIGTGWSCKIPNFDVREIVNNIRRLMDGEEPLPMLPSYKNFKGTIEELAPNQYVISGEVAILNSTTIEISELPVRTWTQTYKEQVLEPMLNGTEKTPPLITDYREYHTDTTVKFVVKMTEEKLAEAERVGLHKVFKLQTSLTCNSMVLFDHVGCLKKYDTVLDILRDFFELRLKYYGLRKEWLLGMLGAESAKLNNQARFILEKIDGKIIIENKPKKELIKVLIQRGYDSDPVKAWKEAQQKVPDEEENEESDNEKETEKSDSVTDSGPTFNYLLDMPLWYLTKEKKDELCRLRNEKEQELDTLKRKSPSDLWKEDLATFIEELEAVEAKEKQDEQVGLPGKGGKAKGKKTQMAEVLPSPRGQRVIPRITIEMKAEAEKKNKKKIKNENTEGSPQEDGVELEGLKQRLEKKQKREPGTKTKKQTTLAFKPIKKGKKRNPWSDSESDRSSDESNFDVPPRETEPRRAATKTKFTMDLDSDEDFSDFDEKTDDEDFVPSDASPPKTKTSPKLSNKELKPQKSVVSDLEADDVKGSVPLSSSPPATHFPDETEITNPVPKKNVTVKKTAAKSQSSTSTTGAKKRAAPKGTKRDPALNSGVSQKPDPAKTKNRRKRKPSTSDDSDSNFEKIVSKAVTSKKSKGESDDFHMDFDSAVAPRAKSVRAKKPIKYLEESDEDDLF
# MDA-MB-231 [21] = assay: Induction of cell cycle arrest in human MDA-MB-231 cells assessed as accumulation at G0/G1 phase at 5.21 uM by propidium iodide staining based flow cytometry (reference value: 77.7 +/- 0.28%); assay type: functional
# MCF7 [22] = assay: Antiproliferative activity against human MCF-7 cells assessed as proportion of live cells at 25 ug/ml measured after 3 weeks by crystal violet staining based soft agar colony formation assay (reference value: 100%); assay type: functional; conditions: dose 25 µg/ml
# MCF7 [23] = assay: Induction of cell cycle arrest in human MCF-7 cells assessed as accumulation at S phase at 8.66 uM by propidium iodide staining based flow cytometry (reference value: 6.9%); assay type: functional
# [24] = Toxicity in Swiss albino mouse assessed as total bilirubin level in serum at 5 mg/kg, po administered as single dose (reference value: 0.62 +/-0.05 mg/dl); assay type: organism-based; conditions: in vivo
# THP-1 = assay: Antiproliferative activity against human THP-1 cells assessed as inhibition of cell growth measured after 48 hrs by SRB assay; assay type: functional, cell-based; conditions: THP-1, 48 h
# [25] = Toxicity in Swiss albino mouse assessed as haemoglobin level in blood at 5 mg/kg, po administered as single dose (reference value: 12.05 +/-0.88 gm/dl); assay type: organism-based; conditions: in vivo
# [26] = Toxicity in Swiss albino mouse assessed as SGOT level in serum at 50 mg/kg, po administered as single dose (reference value: 22.12 +/-1.91 U/L); assay type: organism-based; conditions: in vivo
# [27] = Toxicity in Swiss albino mouse assessed as body weight at 50 mg/kg, po administered as single dose (reference value: 31.62 +/- 1.64 gms); assay type: organism-based; conditions: in vivo
# [28] = Toxicity in Swiss albino mouse assessed as cholesterol level in serum at 5 mg/kg, po administered as single dose (reference value: 103.62 +/-7.45 mg/dl); assay type: organism-based; conditions: in vivo
# MDA-MB-231 [29] = assay: Induction of apoptosis in human MDA-MB-231 cells assessed as proportion of late apoptotic cells at 10.42 uM measured after 24 hrs by Annexin V-FITC/propidium iodide staining based flow cytometry (reference value: 0.5%); assay type: functional
# [30] = Toxicity in Swiss albino mouse assessed as absolute and relative liver weight at 5 to 300 mg/kg, po administered as single dose; assay type: organism-based; conditions: in vivo, dose 5-300 mg/kg
# [31] = Toxicity in Swiss albino mouse assessed as creatinine level in serum at 50 mg/kg, po administered as single dose (reference value: 0.27+/-0.02 mg/dl); assay type: organism-based; conditions: in vivo
# MDA-MB-231 [32] = assay: Induction of cell cycle arrest in human MDA-MB-231 cells assessed as accumulation at G2/M phase at 5.21 uM by propidium iodide staining based flow cytometry (reference value: 8.35 +/- 0.07%); assay type: functional
structure (smiles),measurement,setting,value
COc1ccc(C(c2ccccc2OCCN2CCCC2)c2cccc3ccccc23)c(OC)c1OC (centres undefined),Activity,[1],106.09 mg/dL
same,Activity,MCF7 [2],16.5%
same,Activity,[3],198.57 U/L
same,Activity,[4],94.42 mg/dL
same,Activity,MCF7 [5],2.2%
same,Activity,[6],27.32 U/L
same,Activity,[7],0.65 g/dL
same,Activity,MDA-MB-231 [8],80.2%
same,Activity,MCF7 [9],12.98%
same,Activity,MDA-MB-231 [10],2%
same,Activity,MDA-MB-231 [11],49.4%
same,Activity,MCF7 [12],77.8%
same,Activity,[13],0.62 mg/dL
same,Activity,[14],9.96 g/dL
same,Activity,MCF7 [15],74.6%
same,Activity,MDA-MB-231 [16],2.7%
same,IC50,A549,5.85 µM
same,Activity,MCF7 [17],0%
same,Activity,MCF7 [18],63.1%
same,Activity,MCF7 [19],66.5%
same,inhibition,[20],25.9%
same,Activity,MDA-MB-231 [21],79.1%
same,Activity,MCF7 [22],20.64%
same,Activity,MCF7 [23],9.2%
same,Activity,[24],0.66 mg/dL
same,IC50,THP-1,12.6 µM
same,Activity,[25],11.35 g/dL
same,Activity,[26],25.42 U/L
same,Activity,[27],30.44 g
same,Activity,[28],111.17 mg/dL
same,Activity,MDA-MB-231 [29],34.2%
same,Activity,[30],Non-Toxic
same,Activity,[31],0.34 mg/dL
same,Activity,MDA-MB-231 [32],10.2%
